Results on 2 compounds are retold here after patent US20200131156A1, “ARYLSULFONYLPYROLECARBOXAMIDE DERIVATIVES AS Kv3 POTASSIUM CHANNEL ACTIVATORS” (H. Lundbeck A/S, priority 2018, published 2020).

Where two headings read alike, the source gives them in different places.

Broadly, the fraction unbound is the share of the substance not bound to proteins or other matrix. A low value points to extensive binding.

One series concerns the target T1, human Kv3.1b (Homo sapiens, UniProt P48547).
T1 construct: expressed in transfected cells
T1 sequence (P48547 1-585 isoform P48547-2): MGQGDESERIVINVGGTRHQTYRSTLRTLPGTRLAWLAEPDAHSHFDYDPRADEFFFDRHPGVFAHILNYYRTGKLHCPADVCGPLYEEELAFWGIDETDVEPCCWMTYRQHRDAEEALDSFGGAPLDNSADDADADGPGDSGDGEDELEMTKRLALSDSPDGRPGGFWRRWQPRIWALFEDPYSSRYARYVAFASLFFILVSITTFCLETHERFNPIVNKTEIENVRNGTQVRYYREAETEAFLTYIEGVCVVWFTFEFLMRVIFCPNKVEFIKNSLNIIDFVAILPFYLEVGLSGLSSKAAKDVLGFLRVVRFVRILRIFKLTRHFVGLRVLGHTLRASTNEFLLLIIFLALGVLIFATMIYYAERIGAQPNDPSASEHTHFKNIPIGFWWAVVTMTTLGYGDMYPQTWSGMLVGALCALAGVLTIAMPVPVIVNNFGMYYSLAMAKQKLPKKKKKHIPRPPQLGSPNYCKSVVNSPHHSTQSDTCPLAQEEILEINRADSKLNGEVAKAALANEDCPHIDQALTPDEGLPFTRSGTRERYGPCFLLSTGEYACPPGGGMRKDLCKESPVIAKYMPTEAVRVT
The series is described as follows: Manual patch clamp electrophysiology, HEK-293 cells stably expressing human Kv3.1b. The class given is cell-based. The note with it: for hKv3.1 ECΔ30% increase: concentration increasing current by 30% at the −10 mV step; for hKv3.1 ECΔ5 mV: concentration that shifts activation threshold by 5 mV. As to the method: Manual Patch Clamp Electrophysiological Evaluation, hKv3.1, hKv3.2, hKv3.3, hKv3.4:
HEK-293 cells stably expressing human Kv3.1b, Kv3.2, Kv3.3 or Kv3.4 were used for the experiments.
Kv3.1b, Kv3.2: Cells were cultured in MEM medium supplemented with 10% Fetal Bovine Serum, 1% Penicillin/Streptomycin, 2 mM glutamine and 0.6 mg/mL geneticin. Cells were grown to 80-90% confluency at 37° C. and 5% CO2 Kv3.3 or Kv3.4: Cells were cultured in DMEM medium supplemented with 10% Fetal Bovine Serum, 500 ug/mL Geneticidin and 1% Penicillin/Streptomycin. Cells were grown to 80-90% confluency at 37° C. and 5% CO2.
On the day of the experiment the cells were detached by TrypLE and resuspended in culture medium. Cells were centrifuged, media removed and the cells were resuspended in extracellular buffer containing (in mM): 130 Na-gluconate, 20 NaCl, 4 KCl, 1 MgCl2, 1.8 CaCl2, 10 HEPES and 5 glucose, pH 7.3 adjusted with NaOH, 310-320 mOsm
Patch-clamp recordings were performed using a manual patch-clamp system (Axon Multiclamp 700B, Digidata 1440, pCLAMP 10, Molecular Devices Corporation) with a fast perfusion system (RSC-160 Rapid solution Changer, BioLogic). Whole-cell recordings were carried out using an intracellular solution containing (in mM): 100 K-gluconate, 40 KCl, 10 HEPES, 1 EGTA, 1 MgCl2, pH 7.2 adjusted with KOH, 290-300 mOsm. Cell membrane potentials were held at −80 mV and current voltage-relationship was generated by voltage steps (50 ms duration) from −100 mV to +10 mV (in 10 mV increments) and then back to −100 mV for 50 ms, with inter-sweep interval of 3 s. The peak current amplitude of −10 mV was monitored until stable (<5% change) by using one step voltage protocol. One IV protocol was run as baseline, then compound perfusion was stared and peak current stability was monitored with single step protocol prior to the IV protocol. Single concentrations were measured per cell. Acceptable cells had seal resistance >500 MOhm, Access resistance <10 MOhm, and leak current <200 pA.
Data analysis was performed using Clampfit (V10.2) in combination with Microsoft Excel™ (Redmond, Wash., USA). Current voltage relationships were plotted from the peak current (baseline subtracted) at the individual voltage steps normalized to the vehicle addition at 10 mV. The voltage threshold for channel activation was defined as 5% activation of the peak current at 10 mV in presence of vehicle. […] The concentration needed to shift the threshold 5 mV was readout from this curve (ECΔ5 mV), as well as the ability to increase the peak current at the −10 mV step (EC30% increase). […]
(In general: In patch-clamp work, channel activity is measured electrically.)

The target of a further series is hKv1.1/1.2 (Homo sapiens, UniProt P16389+Q09470). The series is described as follows: Off-target Kv1.1/1.2 inhibition electrophysiology (Qpatch). Type of series: cell-based. The note with it: up to 30 μM. How it is done: The activity of selected compound examples at three key ion channel off targets was measured, namely Nav1.1, Kv1.1/1.2 and Kv7.2/7.3.
Effects of selected examples on inhibition of the voltage gated heteromeric potassium channel Kv1.1/1.2 was also tested in a use-dependent manner by electrophysiology at concentrations up to 30 μM.

Series [1] can be described thus: Unbound fraction in plasma. Type of series: in vitro ADME, rat.
Setting [2] is: resting, read-out: hKv1.1/1.2 (Qpatch) Resting IC50.
Setting [3] is: use-dependent, read-out: hKv1.1/1.2 (Qpatch) Use-dependent IC50.

Chain of hKv1.1/1.2 (Q09470 whole entry): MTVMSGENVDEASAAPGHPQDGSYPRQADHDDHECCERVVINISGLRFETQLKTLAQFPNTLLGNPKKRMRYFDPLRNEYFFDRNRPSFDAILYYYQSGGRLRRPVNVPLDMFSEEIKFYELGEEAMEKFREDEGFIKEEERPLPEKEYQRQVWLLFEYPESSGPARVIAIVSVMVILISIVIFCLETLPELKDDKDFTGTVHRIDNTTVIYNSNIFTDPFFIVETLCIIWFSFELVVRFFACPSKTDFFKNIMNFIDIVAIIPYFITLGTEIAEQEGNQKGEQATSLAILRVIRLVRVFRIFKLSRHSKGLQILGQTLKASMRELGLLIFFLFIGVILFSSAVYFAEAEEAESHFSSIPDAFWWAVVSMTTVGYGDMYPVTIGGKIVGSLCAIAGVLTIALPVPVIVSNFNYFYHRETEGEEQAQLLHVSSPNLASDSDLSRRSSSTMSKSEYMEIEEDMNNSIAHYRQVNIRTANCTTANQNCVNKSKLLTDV
Chain of hKv1.1/1.2 (P16389 whole entry): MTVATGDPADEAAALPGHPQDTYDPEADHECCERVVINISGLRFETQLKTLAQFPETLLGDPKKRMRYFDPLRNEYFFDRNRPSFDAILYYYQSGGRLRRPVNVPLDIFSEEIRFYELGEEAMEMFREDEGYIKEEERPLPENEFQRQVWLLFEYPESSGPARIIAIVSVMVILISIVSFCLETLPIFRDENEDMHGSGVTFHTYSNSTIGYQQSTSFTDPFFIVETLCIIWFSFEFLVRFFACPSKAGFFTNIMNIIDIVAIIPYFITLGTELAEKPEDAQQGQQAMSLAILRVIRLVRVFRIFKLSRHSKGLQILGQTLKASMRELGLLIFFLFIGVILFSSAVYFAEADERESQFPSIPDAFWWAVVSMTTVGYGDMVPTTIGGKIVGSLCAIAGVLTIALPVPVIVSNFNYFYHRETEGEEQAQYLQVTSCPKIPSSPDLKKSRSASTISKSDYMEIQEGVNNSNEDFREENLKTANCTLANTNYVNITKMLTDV

With `Cc1cnc(CNC(=O)c2ccn(S(=O)(=O)c3ccc(F)cc3C)c2)cn1` [Compound 90, 1-(4-fluoro-2-methylbenzene-1-sulfonyl)-N-[(5-methylpyrazin-2-yl)methyl]-1H-pyrrole-3-carboxamide], at human Kv3.1b, the “hKv3.1 ECΔ30% increase” value amounted to 1.8 µM and the “hKv3.1 ECΔ5 mV” value came out at 0.6 µM. On hKv1.1/1.2 (setting [2]), the IC50 was greater than 30 µM. Moreover, the IC50 at hKv1.1/1.2 (setting [3]) was greater than 30 µM. In series [1] (rat PK table footnote), this compound displayed a fraction unbound of 0.1.

Take `Cc1ccc(S(=O)(=O)n2ccc(C(=O)NCc3ncco3)c2)cc1` [Compound 86, 1-(4-methylbenzene-1-sulfonyl)-N-[(1,3-oxazol-2-yl)methyl]-1H-pyrrole-3-carboxamide]: the “hKv3.1 ECΔ30% increase” value on human Kv3.1b came to 10.1 µM. Also, the “hKv3.1 ECΔ5 mV” value at human Kv3.1b was 3.0 µM. The IC50 at hKv1.1/1.2 (setting [2]) is greater than 30 µM; at hKv1.1/1.2 (setting [3]), no less than 30 µM. In series [1] (rat table footnote), the fraction unbound turned out to be 0.12.
